Tested on: calcium channels
Settings: read-out: IC50 values for blocking calcium channels; rat cerebellar granule cells, fura2 fluorescence, 37° C.

COc1ccc(CCN(C)CCCC(C#N)(c2ccc(OC)c(OC)c2)C(C)C)cc1OC (stereo not shown) [Verapamil]
IC50: 4.8 µM

— patent US5804554A, “Calcium channel blocking polypeptides from filistata hibernalis” (priority 1995, dated 1998)
